Test results as given in patent EP0100673A2, “A method of enhancing neurofiber regrowth” (THE RESEARCH FOUNDATION OF STATE UNIVERSITY OF NEW YORK, priority 1982, dated 1984).

Columns and labels:
[1] = test system: muscles of the operated hindlimb; test: Wet weight of hindlimb muscles after sciatic nerve severing and microsurgical repair; format: in vivo, rat; details: for Average Wet Weight (g) of Muscles: 12 mg/kg in 5% DMSO, bath + i.m. twice weekly; for % Weight (+)gain or (-)loss Treated vs. Control / % Weight (+) gain (-) loss Treated vs. control / % Weight (+)gain or (-)loss: muscle wet weight; for % Weight (+) gain (-) loss Treated vs. control: One Week; for % Weight (+)gain or (-)loss: Three Month, treated vs. control
Experimental: (§1) lwenty raty art anenthetizve with sel rompun (0.5 cc total volume). The right sciatic nerve is exposed and severed with microneuroscissors, and subsequently repaired microsurgically with 6-8 circumferential microsutures using 10-0 nylon. Immediately following surgery the treated animals receive 12 mg/kg Ac leupeptin in 5% DMSO (dimethylsulphoxide) as a bath on their sciatic nerve, 0.25 cc. total volume. Then the treated animals are injected intramuscularly in right hindlimb with 0.25 cc of a solution containing 12 mg/kg Ac leupeptin in 5% DMSO. Control animals receive the same surgical treatment, but the bath and intramuscular injection consist only of the solvent and 5% DMSO.
(§2) Thereafter, treated animals are injected twice weekly in the operated hindlimb with 12 mg/kg Ac leupeptin in 5% DMSO (0.25 cc total volume) for periods of 1 week, 1 month, two months, three months - and six months. Control animals are injected with 0.25 cc of 5% DMSO twice weekly in the operated hindlimb for the same time period.
(§3) Two treated and two control animals are assigned to each of the stated time periods.
(§4) All animals are sacrified by an overdose of pentobarbital, 1.0 cc total volume. The gastro- cnemius, soleus and extensor digitorum longus muscles of the operated hindlimb are execised from origin to insertion, weighed and then frozen in isopentane in liquid nitrogen […]. For light microscopy, cryostat sections are cut, placed on slides and stained with hematoxylin and eosin and/or ATPase histochemistry at pH's of 4.3 and 10.4. Myofiber diameters are determined by photographing hematoxylin and eosin sections at a constant magnification in the light microscope.

[2] = test system: muscles of the operated hindlimb; test: Myofiber diameter by light microscopy after sciatic nerve severing and microsurgical repair; format: in vivo, rat; details: for Average Myofiber Diameter (µm) by Light Microscopy: 12 mg/kg in 5% DMSO, bath + i.m. twice weekly; for % Difference Treated vs. Control: myofiber diameter
Experimental: as §1, §2, §3, §4

For CC(=O)N[C@@H](CC(C)C)C(=O)N[C@@H](CC(C)C)C(=O)N[C@H](C=O)CCCNC(=N)N [Ac leupeptin, acetyl-L-leu-L-leu-L-argininal], the “Average Wet Weight (g) of Muscles” value ([1]; Three Month Treated, SOLEUS) was 0.248 g, the “Average Wet Weight (g) of Muscles” value ([1]; Two Months Treated, E.D.L.) was 0.202 g and the “Average Wet Weight (g) of Muscles” value ([1]; Two Months Treated, GASTROCNEMIUS) was 1.371 g. The “Average Wet Weight (g) of Muscles” value ([1]; Two Months Treated, SOLEUS) was 0.425 g, the “average wet weight in grams in treated muscles” value ([1]; all time periods and muscles, vs. control) was “significantly greater than control” and the “% Weight (+)gain or (-)loss Treated vs. Control” value ([1]; One Month, E.D.L.) was “+62%”. The “% Weight (+)gain or (-)loss Treated vs. Control” value ([1]; One Month, GASTROCNEMIUS) was “+30%”, the “% Weight (+)gain or (-)loss Treated vs. Control” value ([1]; One Month, SOLEUS) was “+19%” and the “% Weight (+) gain (-) loss Treated vs. control” value ([1]; E.D.L.) was “+18%”. The “% Weight (+) gain (-) loss Treated vs. control” value ([1]; GASTROCNEMIUS) was “+37%”, the “% Weight (+) gain (-) loss Treated vs. control” value ([1]; SOLEUS) was “+13%” and the “% Weight (+)gain or (-)loss Treated vs. Control” value ([1]; Six Month, E.D.L.) was “+18%”. For the same compound, the “% Weight (+)gain or (-)loss Treated vs. Control” value ([1]; Six Month, GASTROCNEMIUS) was “+15%”, the “% Weight (+)gain or (-)loss Treated vs. Control” value ([1]; Six Month, SOLEUS) was “+23%” and the “% Weight (+)gain or (-)loss” value ([1]; E.D.L.) was “+13%”. For the same compound, the “% Weight (+)gain or (-)loss” value ([1]; GASTROCNEMIUS) was “+18%”, the “% Weight (+)gain or (-)loss” value ([1]; SOLEUS) was “+9%” and the “% Weight (+)gain or (-)loss Treated vs. Control” value ([1]; Two Months, E.D.L.) was “+43%”. For the same compound, the “% Weight (+)gain or (-)loss Treated vs. Control” value ([1]; Two Months, GASTROCNEMIUS) was “+14%”, the “% Weight (+)gain or (-)loss Treated vs. Control” value ([1]; Two Months, SOLEUS) was “+9%” and the “Average Myofiber Diameter (µm) by Light Microscopy” value (“Average Myofiber Diameter (µm)” for short) ([2]; One Month Treated, E.D.L.) was 34.1 µm. For the same compound, the “Average Myofiber Diameter (µm)” value ([2]; One Month Treated, GASTROCNEMIUS) was 34.5 µm, the “Average Myofiber Diameter (µm)” value ([2]; One Month Treated, SOLEUS) was 39.4 µm and the “Average Myofiber Diameter (µm)” value ([2]; One Week Treated, E.D.L.) was 44.6 µm. For the same compound, the “Average Myofiber Diameter (µm)” value ([2]; One Week Treated, GASTROCNEMIUS) was 62.3 µm, the “Average Myofiber Diameter (µm)” value ([2]; One Week Treated, SOLEUS) was 49.2 µm and the “Average Myofiber Diameter (µm)” value ([2]; Six Month Treated, E.D.L.) was 75.3 µm. For the same compound, the “Average Myofiber Diameter (µm)” value ([2]; Six Month Treated, GASTROCNEMIUS) was 73.1 µm, the “Average Myofiber Diameter (µm)” value ([2]; Six Month Treated, SOLEUS) was 79.5 µm and the “Average Myofiber Diameter (µm)” value ([2]; Three Month Treated, E.D.L.) was 44.3 µm. For the same compound, the “Average Myofiber Diameter (µm)” value ([2]; Three Month Treated, GASTROCNEMIUS) was 57.2 µm, the “Average Myofiber Diameter (µm)” value ([2]; Three Month Treated, SOLEUS) was 47.9 µm and the “Average Myofiber Diameter (µm)” value ([2]; Two Month Treated, E.D.L.) was 28.9 µm. For the same compound, the “Average Myofiber Diameter (µm)” value ([2]; Two Month Treated, GASTROCNEMIUS) was 35.4 µm, the “Average Myofiber Diameter (µm)” value ([2]; Two Month Treated, SOLEUS) was 42.3 µm and the “% Difference Treated vs. Control” value ([2]; One Month, E.D.L.) was “+7%”. For the same compound, the “% Difference Treated vs. Control” value ([2]; One Month, GASTROCNEMIUS) was “+3%”, the “% Difference Treated vs. Control” value ([2]; One Month, SOLEUS) was “+24%” and the “% Difference Treated vs. Control” value ([2]; One Week, E.D.L.) was “+5%”. For the same compound, the “% Difference Treated vs. Control” value ([2]; One Week, GASTROCNEMIUS) was “+23%”, the “% Difference Treated vs. Control” value ([2]; One Week, SOLEUS) was “+9%” and the “% Difference Treated vs. Control” value ([2]; Six Month, E.D.L.) was “+29%”. For the same compound, the “% Difference Treated vs. Control” value ([2]; Six Month, GASTROCNEMIUS) was “+26%”, the “% Difference Treated vs. Control” value ([2]; Six Month, SOLEUS) was “+30%” and the “% Difference Treated vs. Control” value ([2]; Three Month, E.D.L.) was “+18%”. The “% Difference Treated vs. Control” value ([2]; Three Month, GASTROCNEMIUS) was “+3%”, the “% Difference Treated vs. Control” value ([2]; Three Month, SOLEUS) was “+9%” and the “% Difference Treated vs. Control” value ([2]; Two Month, E.D.L.) was “+10%”. For the same compound, the “% Difference Treated vs. Control” value ([2]; Two Month, GASTROCNEMIUS) was “+18%”, the “% Difference Treated vs. Control” value ([2]; Two Month, SOLEUS) was “+10%” and the myofiber diameter ([2]; treated muscle compared to control) was “significantly greater myofiber diameter when compared to control”.
